In patent US20090233943A9, “NEW COMPOUNDS 835” (priority 2007, published 2009):

Biological target: T1, human β-Secretase (soluble part, AA 1-AA 460, sBACE-Fc) (Homo sapiens, UniProt P56817)
T1 construct: The soluble part of the human β-Secretase (AA 1-AA 460) was cloned; made in house
Assay: TR-FRET assay (β-secretase enzyme)
Assay type: biochemical
Description: The enzyme used in the IGEN Cleavage-, Fluorescent-, TR-FRET- and BiaCore assays is described as follows:
The soluble part of the human β-Secretase (AA 1-AA 460) was cloned into the ASP2-Fc10-1-IRES-GFP-neoK mammalian expression vector. The gene was fused to the Fc domain of IgG1 (affinity tag) and stably cloned into SEEK 293 cells. Purified sBACE-Fc is stored in Tris buffer, pH 9.2 and has a purity of 95%.
Enzyme was diluted to 6 μg/mL and the substrate (Europium)[…](Qsy7) to 200 nM in reaction buffer (NaAcetate, chaps, triton x-100, EDTA pH 4.5). Compounds were diluted to the desired concentration in dimethyl sulfoxide (final dimethyl sulfoxide concentration in assay is 5%). […] Enzyme (9 μL) and 1 μL of compound in dimethyl sulfoxide was added to the plate, mixed and pre-incubated for 10 min. Substrate (10 μL) was added and the reaction proceeded in the dark for 15 min at RT. The reaction was stopped with the addition of 7 μL NaAcetate, pH 9. The fluorescence of the product was measured on a Victor II plate reader with an excitation wavelength of 340 nm and an emission wavelength of 615 nm. […] The dimethyl sulfoxide control defined the 100% activity level and 0% activity was defined by exclusion of the enzyme (using reaction buffer instead).

T1 sequence (P56817 22-460): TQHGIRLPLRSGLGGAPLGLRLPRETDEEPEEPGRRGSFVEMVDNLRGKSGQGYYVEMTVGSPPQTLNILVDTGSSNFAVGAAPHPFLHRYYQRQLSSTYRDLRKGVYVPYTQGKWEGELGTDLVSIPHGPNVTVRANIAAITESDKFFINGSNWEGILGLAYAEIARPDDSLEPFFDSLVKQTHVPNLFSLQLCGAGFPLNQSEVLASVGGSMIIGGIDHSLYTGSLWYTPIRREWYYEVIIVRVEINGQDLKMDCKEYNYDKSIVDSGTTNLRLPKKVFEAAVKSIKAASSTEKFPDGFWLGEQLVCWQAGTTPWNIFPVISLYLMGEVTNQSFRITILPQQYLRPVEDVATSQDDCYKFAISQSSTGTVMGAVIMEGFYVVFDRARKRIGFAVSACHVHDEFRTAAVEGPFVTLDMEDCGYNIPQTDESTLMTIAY

CN1C(=O)C(c2ccc(S(F)(F)(F)(F)F)cc2)(c2cccc(-c3cccc(C#N)c3)c2)N=C1N (centres unmarked) [Example 41, 3′-{2-amino-1-methyl-5-oxo-4-[4-(pentafluoro-λ^6-sulfanyl)phenyl]-4,5-dihydro-1H-imidazol-4-yl}biphenyl-3-carbonitrile]
IC50: 143 nM

CN1C(=O)C(c2ccc(S(F)(F)(F)(F)F)cc2)(c2ccc(F)c(-c3cnccn3)c2)N=C1N (centres unmarked) [Example 30, 2-amino-5-(4-fluoro-3-pyrazin-2-ylphenyl)-3-methyl-5-[4-(pentafluoro-λ^6-sulfanyl)phenyl]-3,5-dihydro-4H-imidazol-4-one 0.75 acetate]
IC50: 124 nM

COc1cccc(-c2cccc(C3(c4ccc(S(F)(F)(F)(F)F)cc4)N=C(N)N(C)C3=O)c2)c1F (single isomer, unassigned) [37 isomer 2]
IC50: 2630 nM

CN1C(=O)C(c2ccc(S(F)(F)(F)(F)F)cc2)(c2cccc(-c3cnccc3C#N)c2)N=C1N (centres unmarked) [Example 34, 3-(3-{2-amino-1-methyl-5-oxo-4-[4-(pentafluoro-λ^6-sulfanyl)phenyl]-4,5-dihydro-1H-imidazol-4-yl}phenyl)pyridine-4-carbonitrile]
IC50: 467 nM

COc1cncc(-c2cc(C3(c4cccc(S(F)(F)(F)(F)F)c4)N=C(N)N(C)C3=O)ccc2F)c1 (centres unmarked) [Example 51, 2-Amino-5-[4-fluoro-3-(5-methoxypyridin-3-yl)phenyl]-[3-methyl-5-3-(pentafluoro-6-sulfanyl)phenyl]-3,5-dihydro-4H-imidazol-4-one]
IC50: 305 nM
